Laboratory results as given in patent US8455544B2, “Synthetic triterpenoids and methods of use in the treatment of disease” (Reata Pharmaecuticals, Inc., priority 2008, dated 2013).
pIC50: −log10 of the molar value. Read-outs that look alike come from different tables or passages of the source.

How the values were obtained:
[1] = cynomolgus monkey, in vivo, po, 4.1 mg/kg
[2] = system: IFNγ-induced NO production in RAW264.7 macrophages; experiment: Suppression of IFNγ-induced NO production (Griess reagent system); assay type: cell-based; details: Mus musculus; RAW264.7, pre-treated 2 hours, then 20 ng/ml IFNγ for 24 hours
RAW264.7 macrophages = experiment: Cell viability, WST-1 reagent; assay type: cell-based; details: Mus musculus, RAW264.7 (20 ng/ml IFNγ)
[3] = system: NQO1 in Hepa1c1c7 murine hepatoma cells; details: concentration required to induce a two-fold increase in expression of NQO1, Hepa1c1c7 cells; cited from earlier work
[4] = parameters: unit not given here; details: six-month, cited from earlier work

## COC(=O)[C@]12CCC(C)(C)C[C@H]1[C@H]1C(=O)C=C3[C@@]4(C)C=C(C#N)C(=O)C(C)(C)[C@@H]4CC[C@@]3(C)[C@]1(C)CC2 [Form B]
[1]
  Bioavailability compared with Form A: higher

## CC1(C)CC[C@]2(C(=O)O)CC[C@]3(C)[C@H](C(=O)C=C4[C@@]5(C)C=C(C#N)C(=O)C(C)(C)[C@@H]5CC[C@]43C)[C@@H]2C1 [RTA 401, 2-cyano-3,12-dioxooleane-1,9(11)-dien-28-oic acid]
[2]
  pIC50: ~8.00
RAW264.7 macrophages
  pIC50: < 6.70
[3]
  NQO1 CD: 2.3 nM

## CC1(C)CC[C@]2(C(=O)n3ccnc3)CC[C@]3(C)[C@H](C(=O)C=C4[C@@]5(C)C=C(C#N)C(=O)C(C)(C)[C@@H]5CC[C@]43C)[C@@H]2C1 [RTA 403]
[2]
  pIC50: ~9.22
RAW264.7 macrophages
  pIC50: 7.00
[3]
  NQO1 CD: 3.3 nM

## CC1(C)CC[C@]2(C(=O)NCC(F)(F)F)CC[C@]3(C)[C@H](C(=O)C=C4[C@@]5(C)C=C(C#N)C(=O)C(C)(C)[C@@H]5CC[C@]43C)[C@@H]2C1 [RTA 404]
[2]
  pIC50: 8.24
RAW264.7 macrophages
  pIC50: 7.00

## CCNC(=O)[C@]12CCC(C)(C)C[C@H]1[C@H]1C(=O)C=C3[C@@]4(C)C=C(C#N)C(=O)C(C)(C)[C@@H]4CC[C@@]3(C)[C@]1(C)CC2 [RTA 405]
[2]
  pIC50: 8.22
RAW264.7 macrophages
  pIC50: ~6.70

## N[C@@H](CC(=O)N1CCn2c(nnc2C(F)(F)F)C1)Cc1cc(F)c(F)cc1F [Sitagliptin]
[4]; +/− metformin with A1c ≧ 7.5, mean A1c 8.9, duration of DM 4.4 years
  Change (Hemoglobin A1c): −0.7
[4]; +/− placebo with A1c ≧ 7.0, mean A1c 8.0, duration of DM 4.3 years
  Change (Hemoglobin A1c): −0.8
[4]; pioglitazone +/− sitagliptin, A1c ≧ 7.0, mean A1c 8.1, duration of DM 6.1 years
  Change (Hemoglobin A1c): −0.7

## CC1(C)CC[C@]2(C#N)CC[C@]3(C)[C@H](C(=O)C=C4[C@@]5(C)C=C(C#N)C(=O)C(C)(C)[C@@H]5CC[C@]43C)[C@@H]2C1 [TP-225]
[2]
  pIC50: ~9.40
RAW264.7 macrophages
  pIC50: 7.12
[3]
  NQO1 CD: 0.28 nM

## Pramlintide acetate
[4]; +/− insulin, mean A1c 9.1, duration of DM 13 years
  Change (Hemoglobin A1c): −0.4
